Experiments:
Assay type in all cases: in vivo
[1] = system: endotoxic mice; assay: Survival of Swiss Webster mice following lethal endotoxin dose and Tβ4; settings: for Number of Mice Alive: Table II, 8 mice at 0 hr.
Protocol: Swiss-Webster mice 4-6 weeks of age (20-25 g) were housed 6 per cage. The mice were divided into 2 groups: endotoxic mice (endotoxin 60 mg/kg i.p. in acute treatment) and endotoxic mice treated with Tβ4, 5 minutes and 2, 4, 6, 8, 10, 12, 14, 16, 18, 20, 22, 24 hours post administration of the endotoxin. Survival was recorded 2 times a day for 7 days.
Swiss-Webster mice 4-6 weeks of age (20-25 g) were divided into groups as follows.
1. Mice treated with a lethal dose of endotoxin (60 mg/kg).
2. […]
3. […]
4. […]

[2] = system: T × β2; assay: T×β2 levels in a septic shock model in rat; settings: rats with septic shock + Tβ4 1 mg/rat × 3
Description: Using a septic shock model in rats (Sprague-Dawley, male, 200-225 g each), the effect of thymosin β4 alone and together with antibiotics was studied. Peritonitis was induced in rats in the following way. A 1-cm incision was made into the peritoneal which exposed the cecum. A tight ligature was placed around the cecum with 4-0 suture distal to the insertion of the small bowel, forming an area of devitalized tissue while maintaining bowel continuity. A puncture wound was made with 16-gauge needle into the anti-mesenteric surface of the cecum and a small amount of fecal contents was expressed through the wound. The cecum was replaced into the peritoneal cavity, and the anterior peritoneal wall and skin were closed with surgical staples. Each animal was given a bolus of normal saline (15 ml/kg) for hydration and allowed to recover overnight.
The results presented in Tables XV to XVIII below show effects of Tβ4 respectively on rat cytokine levels, blood malonyldialdehyde levels, glutathione levels and arachidonic acid metabolic levels.

[3] = system: 6-keto-PGF1α; assay: 6-keto-PGF1α plasma levels in mice after lethal dose of endotoxin; settings: Table XI, endotoxin 60 mg/kg + Tβ4 100 μg administered simultaneously
Description: Using the same methods and materials as in examples 1-3, the effect which Tβ4 has on blood levels of IL-1α, TNF-α, PAG, Txβ2 and 6-keto-PGF1 α, which are pathological mediators of endotoxin induced lethality, was studied.

Thymosin β4 [Tβ4]
Number of Mice Alive ([1]; endotoxin 60 mg/kg + Tβ4 100 μg 3x, 72 hr.): 8
Number of Mice Alive ([1]; endotoxin 60 mg/kg + Tβ4 100 μg 3x, 7 day): 8
Number of Mice Alive ([1]; endotoxin 60 mg/kg + Tβ4 100 μg 3x, 14 day): 8
Survival (No. mice alive) ([1]; Table VI, endotoxin 60 mg/kg + Tβ4 10 μg 3x, immediately following, 2 and 4 hrs after endotoxin, 24 hrs, 8 mice at 0 hrs): 8
Survival (No. mice alive) ([1]; Table VI, endotoxin 60 mg/kg + Tβ4 10 μg 3x, immediately following, 2 and 4 hrs after endotoxin, 48 hrs, 8 mice at 0 hrs): 6
Survival (No. mice alive) ([1]; Table VI, endotoxin 60 mg/kg + Tβ4 10 μg 3x, immediately following, 2 and 4 hrs after endotoxin, 72 hrs, 8 mice at 0 hrs): 6
Survival (No. mice alive) ([1]; Table VI, endotoxin 60 mg/kg + Tβ4 10 μg 3x, immediately following, 2 and 4 hrs after endotoxin, 96 hrs, 8 mice at 0 hrs): 6
Survival (No. mice alive) ([1]; Table VI, endotoxin 60 mg/kg + Tβ4 10 μg 3x, immediately following, 2 and 4 hrs after endotoxin, 120 hrs, 8 mice at 0 hrs): 6
Survival (No. mice alive) ([1]; Table VI, endotoxin 60 mg/kg + Tβ4 100 μg 3x, 2, 4 and 6 hrs after endotoxin, 24 hrs, 8 mice at 0 hrs): 7
Survival (No. mice alive) ([1]; Table VI, endotoxin 60 mg/kg + Tβ4 100 μg 3x, 2, 4 and 6 hrs after endotoxin, 48 hrs, 8 mice at 0 hrs): 4
Survival (No. mice alive) ([1]; Table VI, endotoxin 60 mg/kg + Tβ4 100 μg 3x, 2, 4 and 6 hrs after endotoxin, 72 hrs, 8 mice at 0 hrs): 4
Survival (No. mice alive) ([1]; Table VI, endotoxin 60 mg/kg + Tβ4 100 μg 3x, 2, 4 and 6 hrs after endotoxin, 96 hrs, 8 mice at 0 hrs): 4
Survival (No. mice alive) ([1]; Table VI, endotoxin 60 mg/kg + Tβ4 100 μg 3x, 2, 4 and 6 hrs after endotoxin, 120 hrs, 8 mice at 0 hrs): 4
Survival (No. mice alive) ([1]; Table VI, endotoxin 60 mg/kg + Tβ4 100 μg 3x, immediately following, 2 and 4 hrs after endotoxin, 24 hrs, 8 mice at 0 hrs): 8
Survival (No. mice alive) ([1]; Table VI, endotoxin 60 mg/kg + Tβ4 100 μg 3x, immediately following, 2 and 4 hrs after endotoxin, 48 hrs, 8 mice at 0 hrs): 8
Survival (No. mice alive) ([1]; Table VI, endotoxin 60 mg/kg + Tβ4 100 μg 3x, immediately following, 2 and 4 hrs after endotoxin, 72 hrs, 8 mice at 0 hrs): 8
Survival (No. mice alive) ([1]; Table VI, endotoxin 60 mg/kg + Tβ4 100 μg 3x, immediately following, 2 and 4 hrs after endotoxin, 96 hrs, 8 mice at 0 hrs): 8
Survival (No. mice alive) ([1]; Table VI, endotoxin 60 mg/kg + Tβ4 100 μg 3x, immediately following, 2 and 4 hrs after endotoxin, 120 hrs, 8 mice at 0 hrs): 8
Survival (No. mice alive) ([1]; Table VII, endotoxin 60 mg/kg + Tβ4 10 μg 3x i.p., immediately following, 2 and 4 hrs after endotoxin, 24 hrs, 10 mice at 0 hrs): 3
Survival (No. mice alive) ([1]; Table VII, endotoxin 60 mg/kg + Tβ4 10 μg 3x i.p., immediately following, 2 and 4 hrs after endotoxin, 48 hrs, 10 mice at 0 hrs): 3
Survival (No. mice alive) ([1]; Table VII, endotoxin 60 mg/kg + Tβ4 10 μg 3x i.p., immediately following, 2 and 4 hrs after endotoxin, 72 hrs, 10 mice at 0 hrs): 3
Survival (No. mice alive) ([1]; Table VII, endotoxin 60 mg/kg + Tβ4 10 μg 3x i.p., immediately following, 2 and 4 hrs after endotoxin, 96 hrs, 10 mice at 0 hrs): 3
Survival (No. mice alive) ([1]; Table VII, endotoxin 60 mg/kg + Tβ4 10 μg 3x i.p., immediately following, 2 and 4 hrs after endotoxin, 5 days, 10 mice at 0 hrs): 3
Survival (No. mice alive) ([1]; Table VII, endotoxin 60 mg/kg + Tβ4 10 μg 3x i.p., immediately following, 2 and 4 hrs after endotoxin, 6 days, 10 mice at 0 hrs): 3
Survival (No. mice alive) ([1]; Table VII, endotoxin 60 mg/kg + Tβ4 20 μg 3x i.p., immediately following, 2 and 4 hrs after endotoxin, 24 hrs, 10 mice at 0 hrs): 5
Survival (No. mice alive) ([1]; Table VII, endotoxin 60 mg/kg + Tβ4 20 μg 3x i.p., immediately following, 2 and 4 hrs after endotoxin, 48 hrs, 10 mice at 0 hrs): 4
Survival (No. mice alive) ([1]; Table VII, endotoxin 60 mg/kg + Tβ4 20 μg 3x i.p., immediately following, 2 and 4 hrs after endotoxin, 72 hrs, 10 mice at 0 hrs): 4
Survival (No. mice alive) ([1]; Table VII, endotoxin 60 mg/kg + Tβ4 20 μg 3x i.p., immediately following, 2 and 4 hrs after endotoxin, 96 hrs, 10 mice at 0 hrs): 3
Survival (No. mice alive) ([1]; Table VII, endotoxin 60 mg/kg + Tβ4 20 μg 3x i.p., immediately following, 2 and 4 hrs after endotoxin, 5 days, 10 mice at 0 hrs): 3
Survival (No. mice alive) ([1]; Table VII, endotoxin 60 mg/kg + Tβ4 20 μg 3x i.p., immediately following, 2 and 4 hrs after endotoxin, 6 days, 10 mice at 0 hrs): 3
Survival (No. mice alive) ([1]; Table VII, endotoxin 60 mg/kg + Tβ4 50 μg 3x i.p., immediately following, 2 and 4 hrs after endotoxin, 24 hrs, 10 mice at 0 hrs): 9
Survival (No. mice alive) ([1]; Table VII, endotoxin 60 mg/kg + Tβ4 50 μg 3x i.p., immediately following, 2 and 4 hrs after endotoxin, 48 hrs, 10 mice at 0 hrs): 7
Survival (No. mice alive) ([1]; Table VII, endotoxin 60 mg/kg + Tβ4 50 μg 3x i.p., immediately following, 2 and 4 hrs after endotoxin, 72 hrs, 10 mice at 0 hrs): 7
Survival (No. mice alive) ([1]; Table VII, endotoxin 60 mg/kg + Tβ4 50 μg 3x i.p., immediately following, 2 and 4 hrs after endotoxin, 96 hrs, 10 mice at 0 hrs): 7
Survival (No. mice alive) ([1]; Table VII, endotoxin 60 mg/kg + Tβ4 50 μg 3x i.p., immediately following, 2 and 4 hrs after endotoxin, 5 days, 10 mice at 0 hrs): 7
Survival (No. mice alive) ([1]; Table VII, endotoxin 60 mg/kg + Tβ4 50 μg 3x i.p., immediately following, 2 and 4 hrs after endotoxin, 6 days, 10 mice at 0 hrs): 7
survival rate ([1]; Tβ4 administered 3 times post administration of endotoxin): 100%
most effective protective dose ([1]; administered three times): 100 µg
survival of mice treated with endotoxin (in words) ([1]; administered three times in doses of 50 μg and 20 μg): partially increased the survival
survival rate ([1]; lethal endotoxin shock, endotoxin 60 mg/kg i.p., Example 1): ≤ 100%
T × β2 [2]: 1627 ± 123 pg/mL
6-keto-PGF1α (plasma levels) ([3]; 0.5 hr.): 141 ± 9 pg/mL
6-keto-PGF1α (plasma levels) ([3]; 1 hr): 261 ± 23 pg/mL
6-keto-PGF1α (plasma levels) ([3]; 2 hr): 147 ± 19 pg/mL
6-keto-PGF1α (plasma levels) ([3]; 3 hr): 121 ± 13 pg/mL

From patent US5578570A, “Method of treating septic shock using thymosin β4” (The George Washington University Medical Center, priority 1994, dated 1996)
